{"source": "patent US20020132276A1", "about": "“FACS method for detecton of GPIIb/IIIa inhibitor dependent activators in plasma samples” (priority 1999, published 2002)", "key": {"platelet CD62 [1]": {"test_system": "platelet CD62", "test": "Depletion of DDPAS from plasma by platelets with Compound A, and EDTA elution, read in the DDPASFCA", "format": "cell-based, human", "experimental": "Thrombocytopenic patient plasma was processed as described in Example 1 and Delta fluorescence is shown (FIG. 3, panel A) as a function of volume percent patient plasma. After treatment of 099016 plasma with platelets in the presence and in the absence of compound A, samples were evaluated in the DDPASFCA at a 1/3 dilution using fresh donor PRP.\nThrombocytopenic patient 099016 plasma was evaluated in the DDPASFCA as in Example 1, with the modification that 10 μL of sample, or a sample of 099016 plasma diluted into DDPASFCA-negative plasma, was combined with 20 μL donor PRP (final platelet concentration=1×10^8/mL). The signal in the DDPASFCA was proportional to the patient plasma dilution. Next, the ability of platelets, a physiologically relevant source of GPIIb/IIIa, to remove certain kinds of DDPASs was tested. DDPAS positive thrombocytopenic plasma 099016 (70 μl) was treated with fresh donor PRP (140 μL, final platelet concentration 3×10^8/mL) for 60 minutes in the presence or the absence of compound A (1 μM). Platelets were removed by centrifugation at 1000×G for 5 minutes, and the resulting plasma samples were tested in the DDPASFCA as in Example 1, with the modification that 3 μL of sample was combined with 27 μL donor PRP (final platelet concentration=1×10^8/mL) in the presence or the absence of Compound A (1 μM). […] The samples were then evaluated in the DDPASFCA."}, "[2]": {"test": "Thrombocytopenia in a patient who received Compound A", "format": "in vivo, human", "settings": "patient #304", "experimental": "The development of DDPASs in the plasma of a patient who received Compound A and developed thrombocytopenia was analyzed using the procedure of Example 1. DDPASFCA was not determined for patient #304 prior to taking Compound A. The patient experienced thrombocytopenia after 3 days of administration of Compound A. DDPASs were subsequently detected in this patient's plasma on day 22 post-administration of Compound A and were also detected 17 months later (FIG. 2). DPC38 was used as a positive control. DPC3 was used as a negative control. […] In a prospective study, a patient with such pre-existing DDPASs could be excluded from the study, possibly preventing the clinically significant thrombocytopenic episode."}, "[3]": {"test_system": "drug-dependent anti-platelet antibody (DDAB)", "test": "Depletion and recovery of DDAB from patient 099016 plasma by platelets with Compound A, read in the DDAB ELISA", "format": "binding, human", "experimental": "Thrombocytopenic patient plasma was processed as described in Example 9. After treatment of 099016 plasma with platelets in the presence and in the absence of Compound A, samples were evaluated in the DDAB ELISA (see commonly-owned pending U.S. patent application Ser. No. 09/237061, filed Jan. 26, 1999, the contents of which are herein incorporated by reference) at 3 dilutions (1/100; 1/250 and 1/500) for residual DDAB. Murine JK094 was used as a positive control for the ELISA.\nThrombocytopenic patient 099016 plasma was processed with platelets in the presence or the absence of Compound A to deplete any DDAB as described in Example 9. After treatment of 099016 plasma with platelets in the presence and in the absence of Compound A, samples were evaluated in the DDAB ELISA at 3 dilutions (1/100, 1/250 and 1/500) for residual DDAB. Murine JK094 was used as a positive control for the ELISA."}, "platelet CD62 [4]": {"test_system": "platelet CD62", "test": "Modified DDPASFCA using the donor's own platelets", "format": "cell-based", "settings": "healthy human donor, Compound A 200 nM", "experimental": "The occurrence of DDPASs in the general population was tested by a modification of the DDPASFCA using the donor's own platelets to conduct the assay. PRP (100 μL) from healthy human donors was treated with Compound A (200 nM) or vehicle for 90 minutes. A 5μL sample was transferred to microtiter wells containing 20 μL anti-CD62-PE and samples analyzed by flow cytometry as described in Example 1. Positive samples (defined as Delta PE fluorescence of >0) were retested using the method of Example 1 (heterologous donor). 8% of donors were weakly positive (delta between 10 and 25). […] Thus, the prevalence and titer of pre-existing DDPASs is relatively low in the general population."}, "platelet CD62 [5]": {"test_system": "platelet CD62", "test": "Detection of ADP as a GPIIb/IIIa DDPAS by DDPASFCA", "format": "cell-based, human", "settings": "ADP 0 μM", "experimental": "Adenosine diphosphate (ADP) was evaluated as a possible DDPAS as follows: Compound A (final concentration 1 μM) or vehicle was added to 25 μL of freshly prepared PRP in wells of a 96-well microtiter plate. Another set of wells received vehicle. After 10 minutes, 2.5 μL of from each well was transferred to microtiter wells containing only 20 μL of anti-CD62-PE. After incubation for 30 minutes, samples were analyzed by flow cytometry as in Example 1."}}, "note": "Entries after “also recorded” stand apart in the source; their conditions may differ."}
{"compound": "CCCCOC(=O)N[C@@H](CNC(=O)C[C@H]1CC(c2ccc(C(=N)N)cc2)=NO1)C(=O)O", "note": "[Compound A, 2(S)-[(n-butoxycarbonyl)amino]-3-[[[3-[4-(aminoiminomethyl)phenyl]isoxazolin-5(R)-yl]methylcarbonyl]amino]propionic acid]", "values": [{"measurement": "residual DDPAS in plasma after treatment with platelets", "setting": "platelet CD62 [1]; patient 099016 plasma, donor PRP 60 minutes, Compound A 1 μM", "result": "depleted of the DDPAS; also recorded: specifically depleted the DDPAS"}, {"measurement": "DDPAS in EDTA eluate of platelets", "setting": "platelet CD62 [1]; platelets treated with 099016 plasma with Compound A, 9 mM EDTA, 37° C., 2 hours, versus DPC43 and DPC44", "result": "substantially positive; also recorded: elevated DDPAS"}, {"measurement": "time to thrombocytopenia after start of administration", "setting": "[2]", "result": 3, "unit": "days"}, {"measurement": "residual DDAB in plasma after treatment with platelets", "setting": "[3]; patient 099016 plasma, donor platelets, Compound A, dilutions 1/100, 1/250 and 1/500", "result": "specifically depleted the DDAB"}, {"measurement": "DDAB in EDTA eluants of platelets", "setting": "[3]; platelets treated with 099016 plasma with Compound A", "result": "showed DDAB; also recorded: contain a detectable DDAB"}, {"measurement": "Delta PE fluorescence of the significantly positive sample", "setting": "platelet CD62 [4]", "result": 566}, {"measurement": "+ compound Med F12", "setting": "platelet CD62 [5]; Compound A 1 μM alone", "result": 11}, {"measurement": "Delta Med F12", "setting": "platelet CD62 [5]; with minus without Compound A 1 μM", "result": "−1"}]}
